Reference: patent US4072743A, “N^2 -arylsulfonyl-L-argininamides and the pharmaceutically acceptable salts thereof” (Mitsubishi Chemical Industries Limited, priority 1974, dated 1978)

How the values were obtained:
[1] = molecular target: T1, thrombin (Bos taurus, UniProt P00735); experiment: Fibrinogen coagulation time (thrombin-induced clotting of bovine fibrinogen); type: biochemical; conditions: thrombin 5 units/ml, borate saline buffer pH 7.4, 25° C, normal coagulation time 50-55 seconds prolonged to 100-110 seconds
T1 construct: purchased Mochida Pharmaceutical Co., Ltd
Description: The measurement of the fibrinogen coagulation time was conducted as follows:
Immediately after mixing, the reaction mixture was transferred from the ice bath to a bath maintained at 25° C. Coagulation times were taken as the period between the time of transference to the 25° C bath and the time of the first appearance of fibrin threads.
The term "concentration required to prolong the coagulation time by a factor of two" is the concentration of an active ingredient required to prolong the normal coagulation time 50-55 seconds to 100-110 seconds.

[2] = system: mice; experiment: Acute toxicity (LD50) by intraperitoneal administration in mice; type: in vivo; conditions: mice (male, 20 g)
From the text: Representative LD50 values, for example, for N^2 -(5,6,7,8-tetrahydro-1-naphthylsulfonyl)-N-(2-methoxyethyl)glycine, N^2 -(7-methyl-2-naphthylsulfonyl)-N-butylglycine and N^2 -(6,7-dimethyl-1-naphthylsulfonyl)-N-(2-methoxyethyl)glycine are above 1,500 milligrams per kilogram, respectively.

Row | Structure (SMILES) | Concentration required to prolong the coagulation time by a factor of two [1] [µM] | acute toxicity value (LD50) [2]
1 | CCCCN(CC(=O)O)C(=O)[C@H](CCCNC(=N)N)NS(=O)(=O)c1cccc2c1CCCC2 [Sample 1, N^2-(5,6,7,8-tetrahydro-1-naphthylsulfonyl)-L-arginyl-N-butylglycine] | 20 | –
2 | COCCN(CC(=O)O)C(=O)[C@H](CCCNC(=N)N)NS(=O)(=O)c1cccc2ccc(C)cc12 [Sample 22, N^2-(7-methyl-1-naphthylsulfonyl)-L-arginyl-N-(2-methoxyethyl)glycine] | 20 | –
3 | CCCCN(CC(=O)O)C(=O)[C@H](CCCNC(=N)N)NS(=O)(=O)c1ccc2ccc(C)cc2c1 [Sample 14, N^2-(7-methyl-2-naphthylsulfonyl)-L-arginyl-N-butylglycine] | 0.3 | above 1,500 milligrams per kilogram
4 | CCCCN(C)C(=O)[C@H](CCCNC(=N)N)NS(=O)(=O)c1cccc2c(N(C)C)cccc12 [N^2 -dansyl-N-methyl-N-butyl-L-argininamide, reference compound] | – | 70 milligrams per kilogram
5 | Cc1ccc2ccc(S(=O)(=O)N[C@@H](CCCNC(=N)N)C(=O)N(CC(=O)O)CC3CCCCC3)cc2c1 [Sample 17, N^2-(7-methyl-2-naphthylsulfonyl)-L-arginyl-N-cyclohexylmethylglycine] | 14 | –
6 | CCCCN(CC(=O)O)C(=O)[C@H](CCCNC(=N)N)NS(=O)(=O)c1cccc2c(N(C)C)cccc12 [Sample 24, N^2-(5-dimethylamino-1-naphthylsulfonyl)-L-arginyl-N-butylglycine] | 4 | –
7 | N=C(N)NCCC[C@H](NS(=O)(=O)c1ccc2c(c1)CCCC2)C(=O)N(CC(=O)O)Cc1ccccc1 [Sample 4, N^2-(5,6,7,8-tetrahydro-2-naphthylsulfonyl)-L-arginyl-N-benzylglycine] | 30 | –
8 | COCCN(CC(=O)O)C(=O)[C@H](CCCNC(=N)N)NS(=O)(=O)c1ccc2ccc(C)cc2c1 [Sample 15, N^2-(7-methyl-2-naphthylsulfonyl)-L-arginyl-N-(2-methoxyethyl)glycine] | 0.2 | –
9 | COCCN(CC(=O)O)C(=O)[C@H](CCCNC(=N)N)NS(=O)(=O)c1cccc2cc(C)c(C)cc12 [Sample 23, N^2-(6,7-dimethyl-1-naphthylsulfonyl)-L-arginyl-N-(2-methoxyethyl)glycine] | 10 | above 1,500 milligrams per kilogram
10 | COCCN(CC(=O)O)C(=O)[C@H](CCCNC(=N)N)NS(=O)(=O)c1cccc2c1CCCC2 [Sample 3, N^2-(5,6,7,8-tetrahydro-1-naphthylsulfonyl)-L-arginyl-N-(2-methoxyethyl)glycine] | 10 | above 1,500 milligrams per kilogram
11 | CCCCNC(=O)[C@H](CCCNC(=N)N)NS(=O)(=O)c1cccc2c(N(C)C)cccc12 [N^2 -dansyl-N-butyl-L-argininamide, reference compound] | – | 75 milligrams per kilogram
